According to patent US5338849A, “Azaindoles, preparation processes and medicinal products containing them” (Lipha, Lyonnaise Industrielle Pharmaceutique, priority 1992, dated 1994):

Key:
aortic ACAT = target: T1, aortic ACAT (Oryctolagus cuniculus, UniProt A0A5F9CPP4); experiment: Test A: measurement of the inhibition of aortic ACAT in vitro in rabbits; type: biochemical, male New Zealand rabbits; details: rabbit aortic microsomes, [^14 C]oleoylcoenzyme A, read-out: 50% inhibitory concentration (IC50), concentration of compound which inhibits the ACAT activity by 50%
T1 construct: the aorta is removed, dissected and homogenised in order to prepare the microsomal fraction by ultracentrifugation; from tissue; host or cells: aorta microsomes of cholesterol-fed male New Zealand rabbits
T1 sequence (A0A5F9CPP4 1-555): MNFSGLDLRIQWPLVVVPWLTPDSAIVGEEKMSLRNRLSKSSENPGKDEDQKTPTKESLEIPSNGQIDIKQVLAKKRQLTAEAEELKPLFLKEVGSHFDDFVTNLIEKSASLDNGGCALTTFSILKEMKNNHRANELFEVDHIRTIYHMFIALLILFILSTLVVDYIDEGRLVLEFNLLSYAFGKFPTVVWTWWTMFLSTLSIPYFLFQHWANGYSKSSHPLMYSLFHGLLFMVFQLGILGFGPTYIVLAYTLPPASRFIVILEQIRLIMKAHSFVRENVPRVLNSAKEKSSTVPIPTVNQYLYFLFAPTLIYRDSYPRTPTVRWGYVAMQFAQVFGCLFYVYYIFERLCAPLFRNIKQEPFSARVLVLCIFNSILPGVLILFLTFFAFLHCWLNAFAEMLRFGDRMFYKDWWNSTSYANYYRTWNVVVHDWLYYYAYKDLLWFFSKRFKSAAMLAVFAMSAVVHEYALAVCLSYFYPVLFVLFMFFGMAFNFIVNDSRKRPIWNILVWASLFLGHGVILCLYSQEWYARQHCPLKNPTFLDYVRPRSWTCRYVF
Description: Test A: measurement of the inhibition of aortic ACAT in vitro in rabbits; male New Zealand rabbits weighing between 2.2 and 2.5 kg, subjected beforehand for 15 days to a diet enriched with 1.25% of cholesterol, are sacrificed by cervical dislocation; the aorta is removed, dissected and homogenised in order to prepare the microsomal fraction by ultracentrifugation; these microsomes are incubated in the presence of [^14 C]oleoylcoenzyme A according to the method described by P. J. GILLIES et al., Exp. and Mol. Pathol., 1986, 44, 329-339; the lipids are extracted from the incubate with a methanol/chloroform mixture and the [^14 C]oleoylcholesterol is separated by TLC: the latter compound represents the measure of the ACAT activity, and the results are expressed in the form of a 50% inhibitory concentration (IC50), representing the concentration of compound which inhibits the ACAT activity by 50%.

blood cholesterol level = experiment: Test B: measurement of the hypocholesterolaemic effect in rodents; type: in vivo, male Wistar rats; details: Rattus norvegicus; oral, cholesterol-fed rats (2.5% cholesterol, 8 days), 24 hours and 4 hours before sacrifice; read-out: 25% effective dose (ED25), quantity of compound which lowers the blood cholesterol level by 25%
Description: Test B: measurement of the hypocholesterolaemic effect in rodents; male Wistar rats weighing 200-220 g are subjected to a diet enriched with 2.5% of cholesterol for 8 days; on the last two days, they are treated orally with the test product, 24 hours and 4 hours before being sacrificed by exsanguination: the blood cholesterol level is evaluated on an aliquot fraction of serum by an automated enzymatic method. The results are expressed in the form of a 25% effective dose (ED25) in mg per kg of animal body weight, which represents the quantity of compound which lowers the blood cholesterol level by 25%.

[1] = test system: intestinal absorption of cholesterol; experiment: Test C: measurement of the inhibition of intestinal absorption of cholesterol in rats; type: in vivo, Wistar male rats; details: Rattus norvegicus; oral, fasted rats, Triton WR-1339 i.v., [^3 H]cholesterol orally; read-out: 50% effective dose (ED50), quantity of compound which inhibits intestinal absorption of cholesterol by 50%
Description: Test C: measurement of the inhibition of intestinal absorption of cholesterol in rats; Wistar male rats weighing 230-250 g, fasted for 24 hours, are treated simultaneously with the test product administered orally and with Triton WR-1339 administered i.v.; one hour later, they are treated again orally with [^3 H]cholesterol; three hours later, under ether anaesthesia, 1 ml of blood is withdrawn from their retro-orbital sinus: the blood radioactivity, evaluated on 0.1 ml of serum, represents the measure of the absorption of the [^3 H]cholesterol administered. The results are expressed in the form of a 50% effective dose (ED50) in mg per kg of animal body weight, which represents the quantity of compound which inhibits intestinal absorption of cholesterol by 50%.

CC(C)c1cccc(C(C)C)c1NC(=O)NCC1(n2ccc3cccnc32)CCCC1 [compound no. 1, N^1-[1-(7-azaindol-1-yl)cyclopentylmethyl]-N^2-(2,6-diisopropylphenyl)urea]
IC50 (aortic ACAT): 160 nM | ED25 (blood cholesterol level): 0.202 mg/kg | ED50 [1]: 0.056 mg/kg
